Columns and labels:
[1] = Tissue distribution in the brain after oral hexanic extract of Tagetes lucida, healthy and LPS-administrated mice; format: in vivo, ICR mice; conditions: after the initial absorption process
Experimental: After blood sampling, the mice were sacrificed in a chamber with chloroform by an overdose of anesthesia. The brain, kidney, and spleen were quickly removed and rinsed with saline solution, fresh weight was recorded, and immediately placed on ice. Subsequently, the organs were freeze-dried, grounded, and weighted. The lyophilized organs were individually suspended in methanol in a 1:1 volume: dry weight ratio for 24 h, then sonicated for 5 min and centrifuged at 14,000 rpm for 7 min. The supernatants were recovered in clean tubes and stored at −70 °C until their use.
One hundred microliters of plasma and organs samples, spiked with calibration and QC concentration or samples from the pharmacokinetic study, were mixed with 300 µL of acetonitrile containing the IS at 10 µg/mL for protein precipitation, and vortexed for 3 min. Then, 200 µL of dichloromethane were added, for liquid–liquid extraction of the bioactive compounds, and vortexed for 5 min. The mixture was centrifuged at 14,000 rpm for 10 min, and the extracted organic layers were placed in new tubes, until completely dry at room temperature. For quantitative analysis, samples were resuspended in 100 µL of methanol, transferred to sampling vials, and injected into the chromatographic system, described below.
A pharmacokinetic study was carried out in sixty mice, divided in six subgroups, according to sample collection times. An acute inflammation process by the intraperitoneal (i.p.) administration of LPS at 2 mg/kg was induced in half of the mice per group, while the other half received an i.p. injection of saline solution. Ten min after the damage was induced, the mice were administered with an oral dose of 10 mg/kg of the bioactive fraction dissolved in a 1% Tween-20 aqueous solution. […]
To evaluate the distribution in the tissues, bioactive coumarins were quantified in the lyophilized organs, and concentrations were adjusted to the volumes of liquid obtained by the difference between the dry and fresh weights of each tissue to simulate a distribution approximation of the compounds by tissue system.

[2] = Stability of the analytes in spiked plasma, brain, kidney and spleen matrices (autosampler, long-term, freeze-thaw); format: physicochemical, mice; conditions: for Stability Autosampler RE (%): processed samples in autosampler vials 24 h room temperature; for Stability Freeze-Thaw RE (%): three cycles (−4 °C to 25 °C); for Stability Long-Term RE (%): −70 °C for 30 days
Outline: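 QC samples at 0.3, 3 and 30 µg/mL of each coumarin spiked into blank plasma or brain, kidney and spleen supernatants. Stability covered 24 h at room temperature in autosampler vials, 30 days at −70 °C, and three freeze-thaw cycles (−4 °C to 25 °C) on consecutive days.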

[3] = design: method as in PMID 22465507; conditions: rats, distribution of SC in different organs; cited from earlier work
[4] = Pharmacokinetic study in plasma after oral hexanic extract of Tagetes lucida, healthy and LPS-damaged mice; format: in vivo, ICR mice; conditions: plasma; for Cmax / AUC(0-inf) / MRT / Tmax / half-life / AUC(0-t): ICR, mouse, po, 10 mg/kg; for Cmax / AUC(0-inf) / MRT / Tmax / half-life / AUC(0-t) / Cl/F: 10 mg/kg oral hexanic extract, mean ± SEM (n = 5); for Cmax: non-compartmental; for AUC(0-t): to 6 h

COc1cc2ccc(=O)oc2cc1OC [SC, scoparone]
time at which the highest concentration in the brain tissue is reached [1]: 15 min
Stability Autosampler RE (%) ([2]; brain, nominal 0.3 µg/mL): -2.15%
Stability Freeze-Thaw RE (%) ([2]; brain, nominal 0.3 µg/mL): -1.98%
Stability Long-Term RE (%) ([2]; brain, nominal 0.3 µg/mL): -0.19%
Stability Autosampler RE (%) ([2]; brain, nominal 3.0 µg/mL): 0.37%
Stability Freeze-Thaw RE (%) ([2]; brain, nominal 3.0 µg/mL): -3.09%
Stability Long-Term RE (%) ([2]; brain, nominal 3.0 µg/mL): -0.94%
Stability Autosampler RE (%) ([2]; brain, nominal 30.0 µg/mL): 4.78%
Stability Freeze-Thaw RE (%) ([2]; brain, nominal 30.0 µg/mL): -2.00%
Stability Long-Term RE (%) ([2]; brain, nominal 30.0 µg/mL): -4.75%
Stability Autosampler RE (%) ([2]; kidney, nominal 0.3 µg/mL): 7.01%
Stability Freeze-Thaw RE (%) ([2]; kidney, nominal 0.3 µg/mL): 2.62%
Stability Long-Term RE (%) ([2]; kidney, nominal 0.3 µg/mL): 3.92%
Stability Autosampler RE (%) ([2]; kidney, nominal 3.0 µg/mL): 5.72%
Stability Freeze-Thaw RE (%) ([2]; kidney, nominal 3.0 µg/mL): 1.51%
Stability Long-Term RE (%) ([2]; kidney, nominal 3.0 µg/mL): 2.63%
Stability Autosampler RE (%) ([2]; kidney, nominal 30.0 µg/mL): -0.35%
Stability Freeze-Thaw RE (%) ([2]; kidney, nominal 30.0 µg/mL): 0.49%
Stability Long-Term RE (%) ([2]; kidney, nominal 30.0 µg/mL): 4.36%
Stability Autosampler RE (%) ([2]; plasma, nominal 0.3 µg/mL): 10.18%
Stability Freeze-Thaw RE (%) ([2]; plasma, nominal 0.3 µg/mL): -14.02%
Stability Long-Term RE (%) ([2]; plasma, nominal 0.3 µg/mL): -3.50%
Stability Autosampler RE (%) ([2]; plasma, nominal 3.0 µg/mL): 8.27%
Stability Freeze-Thaw RE (%) ([2]; plasma, nominal 3.0 µg/mL): 2.70%
Stability Long-Term RE (%) ([2]; plasma, nominal 3.0 µg/mL): -14.30%
Stability Autosampler RE (%) ([2]; plasma, nominal 30.0 µg/mL): 4.74%
Stability Freeze-Thaw RE (%) ([2]; plasma, nominal 30.0 µg/mL): -0.10%
Stability Long-Term RE (%) ([2]; plasma, nominal 30.0 µg/mL): -8.41%
Stability Autosampler RE (%) ([2]; spleen, nominal 0.3 µg/mL): -7.70%
Stability Freeze-Thaw RE (%) ([2]; spleen, nominal 0.3 µg/mL): -9.57%
Stability Long-Term RE (%) ([2]; spleen, nominal 0.3 µg/mL): -9.67%
Stability Autosampler RE (%) ([2]; spleen, nominal 3.0 µg/mL): -6.71%
Stability Freeze-Thaw RE (%) ([2]; spleen, nominal 3.0 µg/mL): -2.65%
Stability Long-Term RE (%) ([2]; spleen, nominal 3.0 µg/mL): 2.22%
Stability Autosampler RE (%) ([2]; spleen, nominal 30.0 µg/mL): -0.99%
Stability Freeze-Thaw RE (%) ([2]; spleen, nominal 30.0 µg/mL): -4.22%
Stability Long-Term RE (%) ([2]; spleen, nominal 30.0 µg/mL): -2.12%
quantification of the coumarin inside the brain [3]: not possible to quantify
Cmax ([4]; LPS-damaged ICR mice (LPS 2 mg/kg i.p.)): 1280 ± 110 ng/mL
AUC(0-inf) ([4]; LPS-damaged ICR mice): 2780 ± 210 ng·h/mL
MRT ([4]; LPS-damaged ICR mice): 2.26 ± 0.17 h
Tmax ([4]; LPS-damaged ICR mice): 0.7 ± 0.34 h
half-life ([4]; LPS-damaged ICR mice): 0.65 ± 0.06 h
AUC(0-t) ([4]; LPS-damaged ICR mice): 2770 ± 210 ng·h/mL
AUC(0-inf) ([4]; healthy ICR mice): 4030 ± 630 ng·h/mL
MRT ([4]; healthy ICR mice): 4.68 ± 1.16 h
Tmax ([4]; healthy ICR mice): 1.25 ± 0.25 h
half-life ([4]; healthy ICR mice): 2.88 ± 0.83 h
Cmax ([4]; healthy ICR mice): 970 ± 100 ng/mL
AUC(0-t) ([4]; healthy ICR mice): 2870 ± 90 ng·h/mL
pharmacokinetic characteristics in words ([4]; LPS-treated mice, Figure 3b, 3c): fast distribution and subsequent elimination
Cl/F ([4]; LPS-damaged ICR mice): 36.52 ± 2.68 (mg/kg)/(μg/mL)/h
Cl/F ([4]; healthy ICR mice): 26.64 ± 3.00 (mg/kg)/(μg/mL)/h

— PMC9656319, “Pharmacokinetics and Tissue Distribution of Coumarins from Tagetes lucida in an LPS-Induced Neuroinflammation Model” (Plants, 2022)
